Reference: ChEMBL document CHEMBL1155767, “Three new sesquiterpene glycosides from Dendrobium nobile with immunomodulatory activity” (2001)

How the values were obtained:
Format in all cases: functional
Lymphocyte [1] = assay: Immunomodulatory activity in concanavalin A-stimulated mouse lymphocytes assessed as proliferative optical density at 1 uM after 48 hrs by MTT assay (Rvb=0.80+/-0.02)
Lymphocyte [2] = assay: Immunomodulatory activity in LPS-stimulated mouse lymphocytes assessed as proliferative optical density at 10 uM after 48 hrs by MTT assay (Rvb=0.56+/-0.03)
Lymphocyte [3] = assay: Immunomodulatory activity in concanavalin A-stimulated mouse lymphocytes assessed as proliferative optical density at 10 uM after 48 hrs by MTT assay (Rvb=0.80+/-0.02)
Lymphocyte [4] = assay: Immunomodulatory activity in concanavalin A-stimulated mouse lymphocytes assessed as proliferative optical density at 0.1 uM after 48 hrs by MTT assay (Rvb=0.80+/-0.02)
Lymphocyte [5] = assay: Immunomodulatory activity in LPS-stimulated mouse lymphocytes assessed as proliferative optical density at 0.1 uM after 48 hrs by MTT assay (Rvb=0.56+/-0.03)
Lymphocyte [6] = assay: Immunomodulatory activity in LPS-stimulated mouse lymphocytes assessed as proliferative optical density at 1 uM after 48 hrs by MTT assay (Rvb=0.56+/-0.03)
Lymphocyte [7] = assay: Immunomodulatory activity in concanavalin A-stimulated mouse lymphocytes assessed as proliferative optical density at 1 uM after 48 hrs by MTT assay (Rvb=0.47+/-0.01)
Lymphocyte [8] = assay: Immunomodulatory activity in concanavalin A-stimulated mouse lymphocytes assessed as proliferative optical density at 10 uM after 48 hrs by MTT assay (Rvb=0.47+/-0.01)
Lymphocyte [9] = assay: Immunomodulatory activity in concanavalin A-stimulated mouse lymphocytes assessed as proliferative optical density at 0.1 uM after 48 hrs by MTT assay (Rvb=0.47+/-0.01)
Lymphocyte [10] = assay: Immunomodulatory activity in LPS-stimulated mouse lymphocytes assessed as proliferative optical density at 0.1 uM after 48 hrs by MTT assay (Rvb=0.45+/-0.01)
Lymphocyte [11] = assay: Immunomodulatory activity in LPS-stimulated mouse lymphocytes assessed as proliferative optical density at 1 uM after 48 hrs by MTT assay (Rvb=0.45+/-0.01)
Lymphocyte [12] = assay: Immunomodulatory activity in LPS-stimulated mouse lymphocytes assessed as proliferative optical density at 10 uM after 48 hrs by MTT assay (Rvb=0.45+/-0.01)

SMILES: CC(C)[C@H]1CC[C@@]2(C)[C@H](CC[C@]2(O)CO)[C@@H]1CO[C@@H]1O[C@H](CO)[C@@H](O)[C@H](O)[C@H]1O [DENDRONOBILOSIDE B]
- OD (Lymphocyte [1]): 0.68
- OD (Lymphocyte [2]): 0.57
- OD (Lymphocyte [3]): 0.71
- OD (Lymphocyte [4]): 0.68
- OD (Lymphocyte [5]): 0.54
- OD (Lymphocyte [6]): 0.51

SMILES: C[C@@H]1CC[C@H]2[C@@H]1[C@H]1[C@@H](CC[C@@]2(O)CO[C@@H]2O[C@H](CO)[C@@H](O)[C@H](O)[C@H]2O)[C@@]1(C)CO [DENDROSIDE A]
- OD (Lymphocyte [7]): 0.62
- OD (Lymphocyte [8]): 0.5
- OD (Lymphocyte [9]): 0.64
- OD (Lymphocyte [10]): 0.45
- OD (Lymphocyte [11]): 0.52
- OD (Lymphocyte [12]): 0.45

SMILES: CC(C)[C@H]1CC[C@]2(C)[C@@H](CO[C@@H]3O[C@H](CO)[C@@H](O)[C@H](O)[C@H]3O)CC[C@@H]2[C@@H]1CO[C@@H]1O[C@H](CO)[C@@H](O)[C@H](O)[C@H]1O [DENDRONOBILOSIDE A]
- OD (Lymphocyte [7]): 0.53
- OD (Lymphocyte [8]): 0.6
- OD (Lymphocyte [9]): 0.46
- OD (Lymphocyte [10]): 0.49
- OD (Lymphocyte [11]): 0.5
- OD (Lymphocyte [12]): 0.56
